Assay: Human HepG2 cell viability assay in 384 well format
Type: toxicity, cell-based
Set-up: dose 125 nL, time 70.5 hour; cytotoxicity at 70.5 h: concentration not given beside the values
Settings: HepG2 cells, read-out: Inhibition

SMILES	cytotoxicity at 70.5 h [%]
NC(=O)c1csc(C(=O)N2CCCC(n3ccnc3)C2)c1 (stereo not drawn)	-8.21
CN(C)CCCN(Cc1ccco1)Cc1ccnn1C1CCCCO1 (stereo not drawn)	-8.64
Cc1ccc(CN2CC[C@]3(C[C@H](OCc4ccccn4)CO3)C2)o1	-18.4
Cc1nnc2n1CCN(Cc1csc(-c3cnn(C)c3)n1)C2	-3.97
Cc1nccn1CC1CCCN1CCCc1nc(-c2cccs2)no1 (stereo not drawn)	9.19
CCN(C(=O)CCCOC)C(c1ccc(Cl)cc1)c1ccccn1 (stereo not drawn)	31.1
COCCn1ccnc1C1CCN(C(=O)c2cccc(COC)n2)CC1	-4.2
Cc1cccc(OCCC(=O)NCC(C)(C)C(N)=O)c1	5.99
Cn1cccc(NC(=O)COc2ccc(Cl)cc2)c1=O	-1.21
CC(=O)N1CCCC1c1ccc(-c2c(C)noc2C)cn1 (stereo not drawn)	-9.29
Cc1ccccc1SC1CCN(C(=O)C2CNC(=O)N2)CC1 (stereo not drawn)	2.9
CCn1ccnc1CN1CCN(Cc2ccccn2)CC1C (stereo not drawn)	9.97
CN1CCCN(C(=O)c2csc3nc(-c4ccc(Cl)cc4)cn23)CC1	-23
CCCC(NC(=O)c1cc(C)c(F)cc1F)c1nnn[nH]1 (stereo not drawn)	-2.37
Cc1nnc(CNC(=O)C2CSCCC(=O)N2)o1 (stereo not drawn)	45.2
COc1ccc(CNC(C)c2ccc(Cl)cc2)c(OC)c1OC (stereo not drawn)	13.3
CN(Cc1ccncc1)C1COC2(CCN(Cc3cccs3)CC2)C1 (stereo not drawn)	-12.7
Cn1cc(C2CCCN2CCc2nc3ccccc3c(=O)[nH]2)cn1 (stereo not drawn)	-2.12
CCn1cc(C(=O)NC2CCN(S(C)(=O)=O)CC2)c2ccccc21	-9.93
O=C(NC[C@]1(O)CCN(Cc2ccsc2)C[C@H]1O)c1c[nH]cn1	-9.1
COc1cc(C2SCC(=O)Nc3[nH]ncc32)cc2c1OCO2 (stereo not drawn)	-10.8
O=C(c1n[nH]c2c1CCN(Cc1nccs1)C2)N1CCCC1	-7.39
O=C(O)CSc1nnc(-c2ccn[nH]2)n1-c1cccc(C(F)(F)F)c1	-4.2

SMILES	cytotoxicity at 70.5 h [%]
c1cnn(CCNCc2csc(-c3ccsc3)n2)c1	10.6
O=C1NCCN1C(CNS(=O)(=O)C1CC1)Cc1cccc(F)c1 (stereo not drawn)	-13.5
Cc1nccn1C1CCCN(C(=O)Cc2cn3ccccc3n2)C1 (stereo not drawn)	16.9
Cc1cc(=O)[nH]c(CCNC(=O)C(c2ccc(F)cc2)N(C)C)n1 (stereo not drawn)	4.61
COc1c(C)cnc(CN2CCCC(c3noc(C4CC4)n3)C2)c1C (stereo not drawn)	7.81
Cc1cnn(CC2CCCCN2C(=O)c2cccnc2N(C)C)c1 (stereo not drawn)	9.64
COCCNS(=O)(=O)c1ccc(CNc2ncccc2C#N)cc1	-12.6
CC1c2ncc(COCC3CC3)n2CCN1C(=O)c1ccn(C)n1 (stereo not drawn)	-9.47
CNCC(=O)Nc1cccc(-c2cnc(NCCS(C)(=O)=O)nc2)c1	0.0271
Cc1ccc(-c2cc(CNC(=O)N3CCSCC3)on2)cc1	-1.58
CC(O)CN1CCN(C(=O)c2cnn(-c3ccccc3Cl)c2)CC1 (stereo not drawn)	-2.98
CC(C)Oc1ccc(C(=O)N2CCCSCC2CN(C)C)cc1 (stereo not drawn)	26.1
COCC1CN(C(=O)COc2ccccc2C)Cc2ncn(C)c21 (stereo not drawn)	-4.45
CCc1noc(CN(C)C(=O)c2ccnc(OC3CCC3)c2)n1	-0.589
OC(CN1CCOCC1)CN1CCc2c(ncn2C2CC2)C1 (stereo not drawn)	30.4
Cc1ccc(C(=O)Nc2ccccc2N2CCCC2)n1C	12
Cn1cc(-c2nnn3c2COC(CNCc2ccccn2)C3)cn1 (stereo not drawn)	14.6
Cc1cc(NC(=O)CCn2nc(C)c3ccccc32)n(C)n1	-1.96
O=C(c1nnn(-c2ccc(F)cc2)n1)N1CCC(O)CC1	2.17
CCS(=O)(=O)N1C[C@H]2C[C@H](C(=O)N(C)C)[C@@H](C1)O2	-19.2
Cc1ncsc1CCN(C)C1CCN(c2ncnc3[nH]cnc23)CC1	-6.66
COc1ncccc1CNC(=O)c1cnc(C)cn1	-3.16
COc1ccc(C[C@H]2CNCC[C@@H]2OC)cc1	-5.86

SMILES	cytotoxicity at 70.5 h [%]
O=S1(=O)NC(C2CCCN(S(=O)(=O)N3CCCC3)C2)=Nc2ccccc21 (stereo not drawn)	-6.9
Clc1ccc(C2(CNC3=NCCN3)CC2)cc1	10
CC(C)Cc1cc(NC(=O)c2n[nH]c3ccccc23)n(C)n1	-5.98
CC1=N[C@@]2(CC[C@@H]3CN(CC(=O)N(C)C)C[C@@H]32)C(=O)N1CC1CC1	-2.19
Cc1nn(C(C)C)c(C)c1CN1CCC(c2cc(C(C)C)n[nH]2)CC1	-0.772
O=C(Nc1cccnc1)c1nn(C2CCS(=O)(=O)C2)c2c1CCCC2 (stereo not drawn)	-23.7
CCc1ccc(CN2CCC3(CC2)CN(c2cnn(C)c2)C(=O)CO3)o1	-8.17
Cc1nc(S(=O)(=O)NCCC(=O)NCc2ccsc2)cn1C	-6.68
CCC(CO)NCc1ccc(-c2ccccc2)o1 (stereo not drawn)	29.3
CCN(CCC(=O)NC1CC1)Cc1ccc(Cl)s1	-11.3
COc1nn(C)c2c1CCCN(C(=O)c1cccn1C)C2	-41.9
CCn1nc(C)c2c1cnn2CCNS(=O)(=O)c1cccs1	4.54
Cc1cc(CN2CCCC2c2noc(C)n2)no1 (stereo not drawn)	4.25
Cc1[nH]ccc1C(=O)N1CCN(C)C2(CCC(=O)N(C)CC2)C1 (stereo not drawn)	-11.2
CC1CCN(c2nc3ncc4c(c3c(=O)[nH]2)CC(C)(C)CC4=O)CC1	-4.25
Cc1ncc(C(=O)NCCNC(=O)Cc2cccc(F)c2)s1	-6.72
CN(C)C(=O)c1cc2ncc(C(=O)NC3CC3)cc2n1C	-1.06
CC(C)C(C(=O)NC1CC1)n1cnc2cc(F)c(F)cc21 (stereo not drawn)	-0.654
Cc1n[nH]/c(=N\C(=O)c2c3c(nc4onc(C)c24)CCC3)s1	-13.7
NS(=O)(=O)c1ccc(F)c(C(=O)NCCSC2CCCCC2)c1	-9.09
O=C(Nc1cccc(C(=O)OCC2CCCN2)c1)c1ccoc1 (stereo not drawn)	5.78
O=C(c1cccnc1)N1CCC2(CCN(C(=O)c3ccco3)CC2)C1	2.92
COc1ccc(OC)c(CNCc2ccnc(N3CCOCC3)c2)c1	-4.43

SMILES	cytotoxicity at 70.5 h [%]
O=C(CCO)N1C[C@H]2CN(c3ccccc3)C(=O)[C@H]2C1	-8.23
Cc1nc(C2CCCN(C(=O)c3cc(C(C)(C)C)on3)C2)no1 (stereo not drawn)	-1.93
CCC1CN(CC(=O)N2CCCC2)CCN1CCOC (stereo not drawn)	-10.3
CN(C)C(=O)c1ccn(-c2ccc3ccccn23)n1	-4.81
CC(C)n1nc2c(cc1=O)CN(CCOc1cccc(C#N)c1)CC2	-8.86
COc1ccnc(N2CCN(C(=O)c3ccc(Cl)o3)CC2)n1	-4.43
Cc1nc([C@@H]2C[C@@H]3CCN(C(=O)Cc4cccc(F)c4)C[C@H]3O2)no1	-8
O=C(c1cscn1)N1CCc2c(COCC3CC3)cncc2C1	-1.4
Cc1ccn2cc(C(=O)N3CCCC(Cn4cc(CO)nn4)C3)nc2c1 (stereo not drawn)	17.5
Cc1cccc(CN2C(=O)CO[C@@H]3CN(C4CCOCC4)C[C@H]32)c1	0.326
Brc1ccccc1-c1nnc(CNCCn2cccn2)o1	12.2
Cc1cccc2c1nc1n2[C@@H](CNC(=O)c2cncnc2)COC1	-3.15
Cc1cccc(NCc2ncc(C(C)(C)C)o2)c1	12.6
Cc1nc(-n2nc(C3CC3)cc2NC(=O)C(C)C)[nH]c(=O)c1C	40.2
COCCNC(=O)NCCc1ccn(-c2ccccc2)n1	-10.9
COc1ccccc1CC1CCCN(C(=O)c2n[nH]c3c2CCC3)C1 (stereo not drawn)	-3.07
Cc1n[nH]cc1CNC1CCN(c2ccccc2)CC1	24.8
Cc1noc(C)c1-c1ccnc(C2CCN(C3CCOCC3)CC2)c1	0.77
Cn1nccc1CNC(=O)CCn1nc(C(F)(F)F)c(Cl)c1C1CC1	-3.15
CC(C)Cn1c2c(ccc1=O)CC(N)CC2 (stereo not drawn)	-3.16
CC(=O)Nc1cccc(C(=O)Nc2cnc3n2CCCC3)c1	-5.75
Cc1noc([C@]23COC[C@H]2CN(C(=O)C2CCOCC2)C3)n1	-4.92
CC(Cn1ccnc1)NCc1n[nH]c2c1CCC2 (stereo not drawn)	-20.8

SMILES	cytotoxicity at 70.5 h [%]
CN(C)C(=O)CN1CCCCC1c1nc(N)ncc1-c1cccc(F)c1 (stereo not drawn)	34.4
COC(=O)c1sc2cccc(F)c2c1CNC(=O)C1CCOC1 (stereo not drawn)	-2.33
CN(C)C(=O)NC1COC2(CCN(Cc3ccco3)CC2)C1 (stereo not drawn)	-12.8
Cn1cnc2c1CCN(Cc1csc(Cc3ccccc3)n1)C2	-9.86
CCOC(=O)C(C)Nc1cccc(COCc2ccco2)c1 (stereo not drawn)	-1.34
CCc1nnc2n1CCN(C(C(=O)N(CC)CC)c1ccccc1)C2 (stereo not drawn)	-12.7
O=C1NC2(CCN(CC(=O)N3CCOCC3)CC2)Nc2ccc(Br)cc21	-2.15
CCOC[C@@H]1CC[C@H]2[C@H](CCN2S(=O)(=O)Cc2ccccc2)O1	10.7
CNC(=O)CS(=O)(=O)C1CCN(S(=O)(=O)c2ccccc2Br)CC1	-8.95
CC(C)N1CCCC(C(=O)N2CCN(c3cnn(C)c(=O)c3)CC2)C1 (stereo not drawn)	-7.17
Cc1ccsc1CN(C)c1nc2c(cnn2C(C)(C)C)c(=O)[nH]1	-4.96
CC(C)OCCCN(Cc1ccncc1)Cc1cc(F)cc(F)c1	58.6
Cc1cc(C(=O)N2C[C@@H]3[C@@H](CN(C)CCc4ccccn4)[C@@H]3C2)c(C)o1	25.1
Cc1cc(NC(=O)CN2CCCCC2Cn2nc(C)nc2C)on1 (stereo not drawn)	-8.71
Cc1nn(CCC(=O)NC2CCS(=O)(=O)C2)c(C)c1Br (stereo not drawn)	-0.845
CC(=O)N1CCN(C(=O)c2csc(-c3ccc(C)cc3C)n2)CC1	14.1
Cn1cc(C(=O)NC2CCCC2)c(-c2cccnc2)n1	-10.4
Cc1nnc(N2CCCC3(CN(Cc4ccc(C)s4)CCO3)C2)o1 (stereo not drawn)	-8.9
CN(Cc1ccccc1)S(=O)(=O)N1C[C@@H](C(=O)O)[C@H](C2CC2)C1	-6.58
CC(Cn1cc(Br)cn1)C(=O)Nc1ccn(C)n1 (stereo not drawn)	7.88
CO[C@H]1CC[C@H]2[C@H]1OCCN2Cc1ccc(F)c(F)c1	36.7

From ChEMBL document CHEMBL3507680, “University of Dundee, Gates Library screen for HepG2 cell viability”
